In patent publication US20070275981A1, “(Hetero)Cyclycarboxamides for Controlling Pathogenic Fungi” (priority 2004, published 2007):

How the values were obtained:
[1] = test system: Erysiphe [syn. Blumeria] graminis forma specialis. tritici; experiment: Activity against mildew of wheat caused by Erysiphe [syn. Blumeria] graminis forma specialis. tritici (Use Example 7); type: in vivo; settings: 250 ppm active compound, protective 24 h, 7 days; untreated plants 70% infected
Procedure: (§1) For the use examples 4 to 7, the active compounds were prepared as a stock solution comprising 25 mg of active compound which was made up with a mixture of acetone and/or DMSO and the emulsifier Uniperol® EL in a volume ratio of solvent/emulsifier of 99:1 to 10 ml. The mixture was then made up to 100 ml with water. This stock solution was diluted to the active compound concentration stated below using the solvent/emulsifier/water mixture described.
Leaves of potted wheat seedlings of the cultivar “Kanzler” were sprayed to runoff point with an aqueous suspension having the concentration of active compound stated below. 24 h after the spray coating had dried on, the leaves were dusted with spores of mildew of wheat (Erysiphe [syn. Blumeria] graminis forma specialis. tritici). The plants were then placed in a greenhouse at temperatures between 20 and 24° C. and 60 to 90% relative atmospheric humidity. After 7 days, the extent of the fungal infection was determined visually by the infection of the leaf area.

[2] = test system: Plasmopara viticola; experiment: Activity against Peronospora of grapevines caused by Plasmopara viticola (Use Example 1, inoculation the next day); type: in vivo, Plasmopara viticola on potted grapevines; settings: 250 ppm active compound, spray to runoff, inoculated next day; untreated plants 80% infected
Procedure: For the use examples 1 to 3, the active compounds were prepared as a stock solution comprising 0.25% by weight of active compound in acetone or dimethyl sulfoxide (DMSO). 1% by weight of the emulsifier Uniperol® EL (wetting agent having emulsifying and dispersant action based on ethoxylated alkylphenols) was added to this solution, and the mixture was diluted with water to the desired concentration.
Leaves of potted grapevines were sprayed to runoff point with an aqueous suspension having the concentration of active compounds stated below. The next day, the undersides of the leaves were inoculated with an aqueous sporangia suspension of Plasmopara viticola. The grapevines were then initially placed in a water vapor-saturated chamber at 24° C. for 48 hours and then in a greenhouse at temperatures between 20 and 30° C. for 5 days. After this time, the plants were again placed in a humid chamber for 16 hours to promote sporangiophore eruption. The extent of the development of the infection on the undersides of the leaves was then determined visually.

[3] = test system: Botrytis cinerea; experiment: Activity against gray mold on bell pepper leaves caused by Botrytis cinerea, protective application (Use Example 6); type: in vivo; settings: 63 ppm active compound, 5 days, untreated plants 90% affected
Procedure: The mixture was then made up to 100 ml with water.
The next day, the treated plants were inoculated with an aqueous spore suspension of Botrytis cinerea in a 2% strength aqueous biomold solution having a density of 1.7×10^6 spores/ml. The plants were then placed in a dark acclimatized chamber at temperatures between 22 and 24° C. and high atmospheric humidity. After 5 days, the extent of the fungal infection could be determined visually by the infection of the leaf area.

[4] = test system: Plasmopara viticola; experiment: Activity against Peronospora of grapevines caused by Plasmopara viticola, 7 day protective application (Use Example 5); type: in vivo, Plasmopara viticola on potted grapevines; settings: 250 ppm active compound, untreated plants 50% infected
Procedure: as §1
Leaves of potted grapevines were sprayed to runoff point with an aqueous suspension having the concentration of active compound stated below. To be able to assess the persistency of the substances, the plants were, after the spray coating had dried on, placed in a greenhouse for 7 days. The undersides of the leaves were then inoculated with an aqueous sporangia suspension of Plasmopara viticola. The grapevines were then placed initially for 48 hours in a water vapor-saturated chamber at 24° C. and then for 5 days in the greenhouse at temperatures between 20 and 30° C. After this time, the plants were again placed in a humid chamber for 16 hours, to accelerate sporangiophore eruption. The extent of the development of the infection on the undersides of the leaves was then determined visually.

**Q.** For Cc1ccc(-n2nccc2NC(=O)c2cccnc2Cl)cc1 [example 31], which “infection (leaf area)” value [1] is on record?
**A.** at most 15%

**Q.** How did the infection [2] turn out when Cc1ccsc1C(=O)Nc1cc(C(F)(F)F)nn1-c1ccc(Br)cc1 [example 18] was run?
**A.** at most 20%

**Q.** Cn1cc(C(=O)Nc2ccnn2-c2ccc(-c3ccccc3)cc2)c(C(F)(F)F)n1 [example 43] was tested. Which “infection (leaf area)” value [3] did it give?
**A.** at most 10%

**Q.** How did the infection [4] turn out when Cc1nn(C)cc1C(=O)Nc1cc(C(F)(F)F)nn1-c1ccccc1 [example 10] was run?
**A.** at most 20%
